Where a chain is given by its changes, count along the chain named. Read-outs that look alike come from different tables or passages of the source.
Tests used:
OCT1 [1] = target: T1, OCT1 (Homo sapiens, UniProt O15245); conditions: MDCKII-OCT1; doxorubicin 0–100 µmol/L; 3 min; mean ± SD
T1 sequence (O15245 1-554): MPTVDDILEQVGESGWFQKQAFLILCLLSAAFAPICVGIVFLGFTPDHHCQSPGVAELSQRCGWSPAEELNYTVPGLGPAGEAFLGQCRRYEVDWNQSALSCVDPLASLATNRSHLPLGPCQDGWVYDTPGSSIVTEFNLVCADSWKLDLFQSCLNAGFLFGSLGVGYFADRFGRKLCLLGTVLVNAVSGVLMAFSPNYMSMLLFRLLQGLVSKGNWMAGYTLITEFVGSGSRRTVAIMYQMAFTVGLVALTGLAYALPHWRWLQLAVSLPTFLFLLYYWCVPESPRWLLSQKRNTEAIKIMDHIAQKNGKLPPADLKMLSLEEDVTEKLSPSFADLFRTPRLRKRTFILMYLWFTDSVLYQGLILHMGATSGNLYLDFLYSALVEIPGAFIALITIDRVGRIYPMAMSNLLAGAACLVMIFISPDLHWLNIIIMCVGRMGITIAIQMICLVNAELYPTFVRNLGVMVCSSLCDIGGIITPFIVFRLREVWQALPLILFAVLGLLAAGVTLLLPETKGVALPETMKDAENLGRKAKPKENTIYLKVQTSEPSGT
Procedure: (§1) Cellular uptake studies: For all transport studies, cells were seeded in 24-well plates and incubated in a full growth medium at an initial density of 200,000 cells/well for 3 days. Before starting each transport experiment, cells were washed with a pre-warmed (37 °C) incubation buffer [64]. […] Protein concentration of whole cell lysate was determined to quantify cell density after each experiment using the BCA assay according to the manufacturer’s instructions (Pierce, Rockford, IL, USA).
(§2) Statistical evaluation: All experiments were performed at least three times unless otherwise noted. The OATP1A2*1–*3 and OCT1-3 net uptake was obtained by subtracting the uptake into wild-type cells from that of the transporter-transfected cells. Km and Vmax were assessed using Prism 5.01 (GraphPad Software, San Diego, CA, USA). The differences in the doxorubcin uptake in OATP1A2*1–*3 and in OCT1-3 transfected cells were adjusted to the membranous transporter protein levels in the whole cell lysate. Km and Vmax are presented as arithmetic means ± standard deviation.

OCT2 = target: T2, OCT2 (Homo sapiens, UniProt O15244); conditions: MDCKII-OCT2
T2 sequence (O15244 1-555): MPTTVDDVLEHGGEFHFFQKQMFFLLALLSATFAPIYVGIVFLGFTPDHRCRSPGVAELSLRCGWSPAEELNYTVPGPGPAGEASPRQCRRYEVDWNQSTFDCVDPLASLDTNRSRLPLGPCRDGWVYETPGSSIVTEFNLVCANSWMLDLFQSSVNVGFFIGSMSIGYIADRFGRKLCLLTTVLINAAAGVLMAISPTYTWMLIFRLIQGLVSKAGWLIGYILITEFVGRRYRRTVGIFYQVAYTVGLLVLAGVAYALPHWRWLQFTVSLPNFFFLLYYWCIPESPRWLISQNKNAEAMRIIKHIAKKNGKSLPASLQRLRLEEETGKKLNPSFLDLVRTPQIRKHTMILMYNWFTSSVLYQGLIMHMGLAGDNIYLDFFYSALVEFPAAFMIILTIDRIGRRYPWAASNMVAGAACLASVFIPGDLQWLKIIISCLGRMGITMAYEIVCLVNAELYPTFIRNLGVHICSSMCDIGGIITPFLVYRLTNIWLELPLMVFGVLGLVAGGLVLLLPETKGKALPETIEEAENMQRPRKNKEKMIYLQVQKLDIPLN
Procedure: as §1, §2

[2] = during chemotherapy, no reference given, cited from earlier work
[3] = pH 7.4; cited from earlier work
OATP1A2*2 = target: T3, OATP1A2*2 (Homo sapiens, UniProt P46721, I13T); assay: in vitro
T3 sequence (P46721 1-670 I13T): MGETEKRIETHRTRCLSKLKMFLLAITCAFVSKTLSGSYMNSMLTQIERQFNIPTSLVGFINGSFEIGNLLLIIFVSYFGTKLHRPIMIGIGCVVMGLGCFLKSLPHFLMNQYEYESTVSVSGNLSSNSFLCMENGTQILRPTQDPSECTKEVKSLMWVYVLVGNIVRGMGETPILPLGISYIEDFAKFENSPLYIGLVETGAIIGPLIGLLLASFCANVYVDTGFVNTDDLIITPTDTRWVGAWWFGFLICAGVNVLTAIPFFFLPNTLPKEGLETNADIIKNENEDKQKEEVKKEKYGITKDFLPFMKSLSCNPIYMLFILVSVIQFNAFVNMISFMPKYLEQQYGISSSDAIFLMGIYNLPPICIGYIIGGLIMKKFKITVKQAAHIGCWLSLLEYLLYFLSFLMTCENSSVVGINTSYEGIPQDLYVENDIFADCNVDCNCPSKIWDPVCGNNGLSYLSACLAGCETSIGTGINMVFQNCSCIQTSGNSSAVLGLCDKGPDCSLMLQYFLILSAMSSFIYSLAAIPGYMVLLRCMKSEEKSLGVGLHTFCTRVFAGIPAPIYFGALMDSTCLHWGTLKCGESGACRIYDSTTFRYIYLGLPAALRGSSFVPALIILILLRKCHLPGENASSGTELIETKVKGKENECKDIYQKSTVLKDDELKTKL
Procedure: as §1
(§3) Protein abundance of OATP1A2*1–*3 and OCT1–3 were measured by mass spectrometry-based targeted proteomics using a validated LC-MS/MS method as recently described [65].
(§4) 200 μL of each cell lysate sample was mixed with 25 μL internal standard (5 µg/mL daunorubicin), 25 μL citric acid (1%), and 400 μL ice-cold acetonitrile for protein precipitation. […] The clear supernatant was transferred to HPLC vials. The measurement and quantitative evaluation were carried out using the LC-MS/MS system QTRAP 4000® (AB SCIEX, Darmstadt, Germany) and the Software Analyst® 1.4 (Applied Biosystems, Darmstadt, Germany).
(§5) Statistical evaluation: All experiments were performed at least three times unless otherwise noted. The OATP1A2*1–*3 and OCT1-3 net uptake was obtained by subtracting the uptake into wild-type cells from that of the transporter-transfected cells. […]

OATP1A2*3 = target: T4, OATP1A2*3 (Homo sapiens, UniProt P46721, E172D); assay: in vitro
T4 sequence (P46721 1-670 E172D): T3 sequence (P46721 1-670 I13T) with T13I, E172D
Procedure: as §1, §3, §4, §5

OCT1 [4] = target: T1, OCT1; assay: in vitro; conditions: mdck
Procedure: as §1, §2

Q: What does the source list for `COc1cccc2c1C(=O)c1c(O)c3c(c(O)c1C2=O)C[C@@](O)(C(=O)CO)C[C@@H]3O[C@H]1C[C@H](N)[C@H](O)[C@H](C)O1` [doxorubicin, Doxorubicin]?
A: Vmax (OCT1 [1]): 19.4 ± 3.78 pmol/mg/min; Vmax (OCT2; doxorubicin 0–100 µmol/L, 3 min, mean ± SD): 37.8 ± 11.1 pmol/mg/min; saturation of concentration-dependent OCT2-mediated uptake (OCT2; incubation time 3 min, up to 100 µmol/L): not saturated; plasma concentrations of doxorubicin ([2]; conversion of 600 ng/mL): ~ 1 µmol/L; plasma concentrations of doxorubicin [2]: up to 600 ng/mL; present as cationic moiety [3]: 89%; Km (OATP1A2*2; HEK293 cells stably expressing OATP1A2*2): 5.84 ± 3.95 µM; microsomal CLint (OATP1A2*2; other cell line): 1.39 ± 0.65 µL/min/mg; Km (OATP1A2*3; HEK293 cells stably expressing OATP1A2*3): 5.94 ± 3.07 µM; microsomal CLint (OATP1A2*3; other cell line): 2.32 ± 0.99 µL/min/mg; microsomal CLint at 3 min (OCT1 [4]): 4.16 ± 1.1 µL/min/mg
